Experimental data taken from the supplement of paper PMC10307832.

Key:
Assay in all cases: relative viability (nuclei count vs DMSO), 5 days (fraction); higher = more cells survive
NCI-H441 = tested on: NCI-H441
Summary of the method: (§1)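 Lung cancer cell lines were seeded in 1536-well plates and dosed by pin tool the next day, with either a single drug or a fixed anchor-drug dose combined with five library-drug doses (not always all listed) spaced in √10 steps. Five days later, one step fixed the cells and stained their nuclei (final 0.05% Triton X-100, 1% formaldehyde, 1 ug/ml Hoechst), and nuclei were counted on 4× images. Relative viability is the nuclei count in treated wells divided by the count in vehicle wells, and each value is the median of duplicate plates.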

NCI-H322M = tested on: NCI-H322M
Summary of the method: as §1

NCI-H1975 = tested on: NCI-H1975
Summary of the method: as §1

HOP-62 = tested on: HOP-62
Summary of the method: as §1

HCC-15 = tested on: HCC-15
Summary of the method: as §1

EPLC-272H = tested on: EPLC-272H
Summary of the method: as §1

EMC-BAC-2 = tested on: EMC-BAC-2
Summary of the method: as §1

NCI-H2085 = tested on: NCI-H2085
Summary of the method: as §1

NCI-H358 = tested on: NCI-H358
Summary of the method: as §1

HCC-78 = tested on: HCC-78
Summary of the method: as §1

NCI-H2126 = tested on: NCI-H2126
Summary of the method: as §1

NCI-H2023 = tested on: NCI-H2023
Summary of the method: as §1

NCI-H1915 = tested on: NCI-H1915
Summary of the method: as §1

UMC-11 = tested on: UMC-11
Summary of the method: as §1

NCI-H1755 = tested on: NCI-H1755
Summary of the method: as §1

CAL-12T = tested on: CAL-12T
Summary of the method: as §1

NCI-H3122 = tested on: NCI-H3122
Summary of the method: as §1

NCI-H1666 = tested on: NCI-H1666
Summary of the method: as §1

COR-L 105 = tested on: COR-L 105
Summary of the method: as §1

ABC-1 = tested on: ABC-1
Summary of the method: as §1

LXF-289 = tested on: LXF-289
Summary of the method: as §1

## COc1cc2nccc(Oc3ccc(NC(=O)Nc4cc(C)on4)c(Cl)c3)c2cc1OC [Tivozanib] + Cc1nc(NC(=O)N2CCC[C@H]2C(N)=O)sc1-c1ccnc(C(C)(C)C(F)(F)F)c1 [Alpelisib] (partner 2 µM)
NCI-H441; first compound 0.005 µM
  relative viability: 0.711
NCI-H441; first compound 0.01581 µM
  relative viability: 0.452
NCI-H441; first compound 0.05 µM
  relative viability: 0.57
NCI-H441; first compound 0.1581 µM
  relative viability: 0.632
NCI-H441; first compound 0.5 µM
  relative viability: 0.56
NCI-H322M; first compound 0.005 µM
  relative viability: 0.743
NCI-H322M; first compound 0.01581 µM
  relative viability: 0.764
NCI-H322M; first compound 0.05 µM
  relative viability: 0.767
NCI-H322M; first compound 0.1581 µM
  relative viability: 0.756
NCI-H322M; first compound 0.5 µM
  relative viability: 0.84
NCI-H1975; first compound 0.005 µM
  relative viability: 0.587
NCI-H1975; first compound 0.01581 µM
  relative viability: 0.652
NCI-H1975; first compound 0.05 µM
  relative viability: 0.672
NCI-H1975; first compound 0.1581 µM
  relative viability: 0.62
NCI-H1975; first compound 0.5 µM
  relative viability: 0.643
HOP-62; first compound 0.005 µM
  relative viability: 0.72
HOP-62; first compound 0.01581 µM
  relative viability: 0.729
HOP-62; first compound 0.05 µM
  relative viability: 1.06
HOP-62; first compound 0.1581 µM
  relative viability: 0.483
HOP-62; first compound 0.5 µM
  relative viability: 0.901
HCC-15; first compound 0.005 µM
  relative viability: 0.917
HCC-15; first compound 0.01581 µM
  relative viability: 0.839
HCC-15; first compound 0.05 µM
  relative viability: 0.943
HCC-15; first compound 0.1581 µM
  relative viability: 0.826
HCC-15; first compound 0.5 µM
  relative viability: 0.81
EPLC-272H; first compound 0.005 µM
  relative viability: 0.964
EPLC-272H; first compound 0.01581 µM
  relative viability: 0.918
EPLC-272H; first compound 0.05 µM
  relative viability: 1.05
EPLC-272H; first compound 0.1581 µM
  relative viability: 0.723
EPLC-272H; first compound 0.5 µM
  relative viability: 0.862
EMC-BAC-2; first compound 0.005 µM
  relative viability: 0.722
EMC-BAC-2; first compound 0.01581 µM
  relative viability: 0.736
EMC-BAC-2; first compound 0.05 µM
  relative viability: 0.753
EMC-BAC-2; first compound 0.1581 µM
  relative viability: 0.696
EMC-BAC-2; first compound 0.5 µM
  relative viability: 0.774
NCI-H2085; first compound 0.005 µM
  relative viability: 1.02
NCI-H2085; first compound 0.01581 µM
  relative viability: 0.978
NCI-H2085; first compound 0.05 µM
  relative viability: 0.905
NCI-H2085; first compound 0.1581 µM
  relative viability: 0.963
NCI-H2085; first compound 0.5 µM
  relative viability: 0.642
NCI-H358; first compound 0.005 µM
  relative viability: 0.736
NCI-H358; first compound 0.01581 µM
  relative viability: 0.803
NCI-H358; first compound 0.05 µM
  relative viability: 0.771
NCI-H358; first compound 0.1581 µM
  relative viability: 0.73
NCI-H358; first compound 0.5 µM
  relative viability: 0.94
HCC-78; first compound 0.005 µM
  relative viability: 0.327
HCC-78; first compound 0.01581 µM
  relative viability: 0.347
HCC-78; first compound 0.05 µM
  relative viability: 0.315
HCC-78; first compound 0.1581 µM
  relative viability: 0.248
HCC-78; first compound 0.5 µM
  relative viability: 0.316
NCI-H2126; first compound 0.005 µM
  relative viability: 0.708
NCI-H2126; first compound 0.01581 µM
  relative viability: 0.757
NCI-H2126; first compound 0.05 µM
  relative viability: 0.763
NCI-H2126; first compound 0.1581 µM
  relative viability: 0.53
NCI-H2126; first compound 0.5 µM
  relative viability: 0.734
NCI-H2023; first compound 0.005 µM
  relative viability: 0.553
NCI-H2023; first compound 0.01581 µM
  relative viability: 0.578
NCI-H2023; first compound 0.05 µM
  relative viability: 0.634
NCI-H2023; first compound 0.1581 µM
  relative viability: 0.589
NCI-H2023; first compound 0.5 µM
  relative viability: 0.61
NCI-H1915; first compound 0.005 µM
  relative viability: 1.08
NCI-H1915; first compound 0.01581 µM
  relative viability: 1.04
NCI-H1915; first compound 0.05 µM
  relative viability: 1.11
NCI-H1915; first compound 0.1581 µM
  relative viability: 0.99
NCI-H1915; first compound 0.5 µM
  relative viability: 0.961
UMC-11; first compound 0.005 µM
  relative viability: 1.11
UMC-11; first compound 0.01581 µM
  relative viability: 0.846
UMC-11; first compound 0.05 µM
  relative viability: 0.964
UMC-11; first compound 0.5 µM
  relative viability: 0.959
NCI-H1755; first compound 0.005 µM
  relative viability: 0.925
NCI-H1755; first compound 0.01581 µM
  relative viability: 0.888
NCI-H1755; first compound 0.05 µM
  relative viability: 1.01
NCI-H1755; first compound 0.1581 µM
  relative viability: 0.934
NCI-H1755; first compound 0.5 µM
  relative viability: 0.84
CAL-12T; first compound 0.005 µM
  relative viability: 1.11
CAL-12T; first compound 0.01581 µM
  relative viability: 1.07
CAL-12T; first compound 0.05 µM
  relative viability: 1.31
CAL-12T; first compound 0.5 µM
  relative viability: 1.32
NCI-H3122; first compound 0.005 µM
  relative viability: 0.668
NCI-H3122; first compound 0.01581 µM
  relative viability: 0.792
NCI-H3122; first compound 0.05 µM
  relative viability: 0.798
NCI-H3122; first compound 0.1581 µM
  relative viability: 0.973
NCI-H3122; first compound 0.5 µM
  relative viability: 0.983
NCI-H1666; first compound 0.005 µM
  relative viability: 1
NCI-H1666; first compound 0.01581 µM
  relative viability: 0.853
NCI-H1666; first compound 0.05 µM
  relative viability: 1.06
NCI-H1666; first compound 0.1581 µM
  relative viability: 0.965
NCI-H1666; first compound 0.5 µM
  relative viability: 1.01
COR-L 105; first compound 0.01581 µM
  relative viability: 1.2
COR-L 105; first compound 0.05 µM
  relative viability: 0.933
COR-L 105; first compound 0.1581 µM
  relative viability: 1.04
COR-L 105; first compound 0.5 µM
  relative viability: 1.07
ABC-1; first compound 0.005 µM
  relative viability: 0.971
ABC-1; first compound 0.01581 µM
  relative viability: 0.99
ABC-1; first compound 0.05 µM
  relative viability: 0.917
ABC-1; first compound 0.1581 µM
  relative viability: 1.27
ABC-1; first compound 0.5 µM
  relative viability: 1.08
LXF-289; first compound 0.005 µM
  relative viability: 1.02
LXF-289; first compound 0.01581 µM
  relative viability: 0.966
LXF-289; first compound 0.05 µM
  relative viability: 1.06
LXF-289; first compound 0.1581 µM
  relative viability: 1.09
LXF-289; first compound 0.5 µM
  relative viability: 1.02
